Results: patent publication US12398119B2, “Piperazine azaspiro derivatives” (PFIZER INC., priority 2018, dated 2025)
pEC50: −log10 of the molar value.

Target: T1, Human M4 mAChR (Homo sapiens, UniProt P08173)
T1 construct: host or cells: HEK293 (Sor-L9 HEK293 human/M4/GloSensor Cell Clone Number 40)
T1 sequence (P08173 1-479): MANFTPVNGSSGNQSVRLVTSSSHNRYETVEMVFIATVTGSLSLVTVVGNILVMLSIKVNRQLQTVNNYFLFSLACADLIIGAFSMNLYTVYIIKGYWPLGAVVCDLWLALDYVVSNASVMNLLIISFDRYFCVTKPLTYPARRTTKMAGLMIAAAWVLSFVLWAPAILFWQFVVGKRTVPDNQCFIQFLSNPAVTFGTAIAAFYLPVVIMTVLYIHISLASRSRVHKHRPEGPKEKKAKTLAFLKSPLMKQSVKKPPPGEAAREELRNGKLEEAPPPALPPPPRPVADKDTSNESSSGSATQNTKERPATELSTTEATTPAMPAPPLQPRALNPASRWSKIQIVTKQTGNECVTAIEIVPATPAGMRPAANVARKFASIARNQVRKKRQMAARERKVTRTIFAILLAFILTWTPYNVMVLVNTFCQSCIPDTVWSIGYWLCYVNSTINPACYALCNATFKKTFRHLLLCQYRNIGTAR
Assay: Muscarinic hM4 Agonist GloSensor cAMP Assay
Format: cell-based
Details: geometric mean; for Emax: Emax: maximum asymptote of concentration response curve, relative to ACh positive control (EC100) and DMSO, read-out: % maximum effect; for pEC50: HEK293 human/M4/GloSensor cells, EC80 isoproterenol, number of determinations in parentheses, read-out: EC50
Protocol: Muscarinic hM4 Agonist GloSensor cAMP Assay Methods
Compounds were prepared in advance of the assay. Test compounds were solubilized in 100% dimethyl sulfoxide (DMSO, Sigma D8418) to a concentration of 30 mM. A 10-point intermediate dilution series using half log dilutions was created in 100% DMSO with a top concentration of 4 mM. The serially diluted compounds were spotted as 200 nL/well in a 384-well plate (Matrix Catalog Number 4325). The final compound concentration range in the assay was […] to 0.3 nM with a final DMSO concentration of 0.25%.
Human M4 mAChR expressing stable cell lines were generated using a parental HEK cell expressing the GloSensor construct (Promega Sor-L9 HEK293 human/M4/GloSensor Cell Clone Number 40). The cells were grown in 90% Dulbecco's Modified Eagle Medium (DMEM, Gibco 11960), 10% fetal bovine serum (FBS, Hyclone CH.30160-03), 1% Penicillin/Streptomycin (Gibco 15070-063), 500 µg/mL Geneticin (Gibco 10131-027), 200 µg/mL Hygromycin B (Invitrogen 10687-010) and 1% Glutamax (Thermo Fisher 35050061).
One day prior to assay, the cells were lifted using dissociation buffer (Gibco 13151-014) and spun in a centrifuge at 250 times gravity for 5 minutes at room temperature. Supernatant was removed and the cell pellet was resuspended in growth media to a concentration of […]. Cells were then added to white poly-d-lysine coated plates (Becton Dickinson 356661) as 40 μL per well (25,000 cells) and incubated overnight (20-24 hours) in a 37° C. humidified incubator with 5% carbon dioxide (C02).
The following day, culture media was removed from the cell plates and replaced with […] equilibration medium containing 88% CO2-independent medium (Invitrogen 18045088), 10% FBS and 2% GloSensor cAMP reagent (Promega E1291) that had been warmed to 37° C. Plates were then covered and incubated for 2 hours at room temperature while protected from light.
To the previously prepared serially diluted compound plates, 200 nL of 4 mM ACh (Sigma A2661, 10 μM final) or 200 nL of 100% DMSO (0.25% final) was added to the positive and negative control wells, respectively. Compound plates were then diluted by adding 16 μL of C02-independent media containing 10% FBS and an EC80 concentration of isoproterenol (Sigma 16504). Prior to compound testing, concentration response curves were run for isoproterenol to determine the EC80 concentration. At the end of the 2 hour equilibration, 10 µL was transferred from the compound plates to the cell plates. The cell plates were incubated an additional 7 minutes at room temperature and then read using a Multi-label EnVision plate reader (Perkin Elmer) for luminescence.
The raw data, expressed as relative light units, was analyzed using Activity Base (IDBS). The percent effect at each compound concentration was calculated based on and relative to the amount of cAMP produced by the positive and negative control wells contained on each assay plate. The positive control wells contained an EC100 concentration of ACh and the negative control wells contained only DMSO. The concentration and % effect values were fit using a four-parameter logistic dose response equation, and the concentration required for 50% effect (EC50) was determined as well as the maximum asymptote of the concentration response curve to define the efficacy.

| Compound | Emax [%] | pEC50 |
| --- | --- | --- |
| CCOC(=O)N1CC2(CCC(N3CCN(c4ncccc4-c4cnc(OC)cn4)CC3)C2)C1 (stereo not shown) [Example 1, ethyl 6-{4-[3-(5-methoxypyrazin-2-yl)pyridin-2-yl]piperazin-1-yl}-2-azaspiro[3.4]octane-2-carboxylate] | 82.7 | 8.34 |
| CCOC(=O)N1CC2(CC[C@@H](N3CCN(c4ncccc4-c4cscn4)CC3)C2)C1 [Example 4, ethyl (6R)-6-{4-[3-(1,3-thiazol-4-yl)pyridin-2-yl]piperazin-1-yl}-2-azaspiro[3.4]octane-2-carboxylate] | 87.2 | 8.66 |
| CCOC(=O)N1CC2(CC[C@@H](N3CCN(c4ncccc4-c4nncs4)CC3)C2)C1 [Example 5, ethyl (6R)-6-{4-[3-(1,3,4-thiadiazol-2-yl)pyridin-2-yl]piperazin-1-yl}-2-azaspiro[3.4]octane-2-carboxylate] | 46.4 | 8.80 |
| CCOC(=O)N1CC2(CC[C@@H](N3CCN(c4ncccc4OC)CC3)C2)C1 [Example 6, ethyl (6R)-6-[4-(3-methoxypyridin-2-yl)piperazin-1-yl]-2-azaspiro[3.4]octane-2-carboxylate] | 86.3 | 8.80 |
| CCOC(=O)N1CC2(CC[C@H](N3CCN(c4ncccc4OC)CC3)C2)C1 [Example 7, ethyl (6S)-6-[4-(3-methoxypyridin-2-yl)piperazin-1-yl]-2-azaspiro[3.4]octane-2-carboxylate] | 47.7 | 6.37 |
| CCOC(=O)N1CC2(CC[C@@H](N3CCN(c4ncccc4-c4cnccn4)CC3)C2)C1 [Example 8, ethyl (6R)-6-{4-[3-(pyrazin-2-yl)pyridin-2-yl]piperazin-1-yl}-2-azaspiro[3.4]octane-2-carboxylate] | 98.7 | 8.65 |
| CCOC(=O)N1CC2(CC[C@@H](N3CCN(c4ncccc4-n4cc(C)cn4)CC3)C2)C1 [Example 9, ethyl (6R)-6-{4-[3-(4-methyl-1H-pyrazol-1-yl)pyridin-2-yl]piperazin-1-yl}-2-azaspiro[3.4]octane-2-carboxylate] | 68.2 | 7.83 |
| CCOC(=O)N1CC2(CCC(N3CCN(c4cccnc4OCC(F)(F)F)CC3)C2)C1 (stereo not shown) [Example 10, ethyl 6-{4-[2-(2,2,2-trifluoroethoxy)pyridin-3-yl]piperazin-1-yl}-2-azaspiro[3.4]octane-2-carboxylate] | 91.5 | 8.29 |
| CCOC(=O)N1CC2(CC[C@@H](N3CCN(c4nccnc4-c4cncs4)CC3)C2)C1 [Example 11, ethyl (6R)-6-{4-[3-(1,3-thiazol-5-yl)pyrazin-2-yl]piperazin-1-yl}-2-azaspiro[3.4]octane-2-carboxylate] | 66.4 | 9.09 |
| CCOC(=O)N1CCC2(CC(N3CCN(c4ncccc4OC)CC3)C2)C1 (stereo not shown) [Example 12, ethyl 2-[4-(3-methoxypyridin-2-yl)piperazin-1-yl]-6-azaspiro[3.4]octane-6-carboxylate] | 95.2 | 7.63 |
| CCOC(=O)N1CCC2(CC(N3CCN(c4ncccc4-c4cnn(C)c4)CC3)C2)C1 (stereo not shown) [Example 13, ethyl 2-{4-[3-(1-methyl-1H-pyrazol-4-yl)pyridin-2-yl]piperazin-1-yl}-6-azaspiro[3.4]octane-6-carboxylate] | 92.6 | 8.32 |
| CCOC(=O)N1CC2(CCC(N3CCN(c4ncccc4-c4cncnc4)CC3)C2)C1 (stereo not shown) [Example 14, ethyl 6-{4-[3-(pyrimidin-5-yl)pyridin-2-yl]piperazin-1-yl}-2-azaspiro[3.4]octane-2-carboxylate] | 93.7 | 8.92 |
| CCOC(=O)N1CC2(CCC(N3CCN(c4ncccc4-c4nccnc4C)CC3)C2)C1 (stereo not shown) [Example 15, ethyl 6-{4-[3-(3-methylpyrazin-2-yl)pyridin-2-yl]piperazin-1-yl}-2-azaspiro[3.4]octane-2-carboxylate] | 58.5 | 7.76 |
| CCOC(=O)N1CCC2(CC(N3CCN(c4ncccc4-c4cscn4)CC3)C2)C1 (stereo not shown) [Example 16, ethyl 2-{4-[3-(1,3-thiazol-4-yl)pyridin-2-yl]piperazin-1-yl}-6-azaspiro[3.4]octane-6-carboxylate] | 104 | 7.61 |
| CCOC(=O)N1CC2(CCC(N3CCN(c4ncccc4-c4ccnnc4)CC3)C2)C1 (stereo not shown) [Example 17, ethyl 6-{4-[3-(pyridazin-4-yl)pyridin-2-yl]piperazin-1-yl}-2-azaspiro[3.4]octane-2-carboxylate] | 92.3 | 8.36 |
| CCOC(=O)N1CC2(CCC(N3CCN(c4ncccc4-c4ncco4)CC3)C2)C1 (stereo not shown) [Example 18, ethyl 6-{4-[3-(1,3-oxazol-2-yl)pyridin-2-yl]piperazin-1-yl}-2-azaspiro[3.4]octane-2-carboxylate] | 54.9 | 8.29 |
| CCOC(=O)N1CC2(CC(N3CCN(c4ncccc4-c4ccc(C#N)cn4)CC3)C2)C1 [Example 24, ethyl 6-[4-(5-cyano-2,3′-bipyridin-2′-yl)piperazin-1-yl]-2-azaspiro[3.3]heptane-2-carboxylate] | 70.6 | 7.27 |
| CCOC(=O)N1CC2(CCC(N3CCN(c4cccnc4OC4COC4)CC3)C2)C1 (stereo not shown) [Example 25, ethyl 6-{4-[2-(oxetan-3-yloxy)pyridin-3-yl]piperazin-1-yl}-2-azaspiro[3.4]octane-2-carboxylate] | 83.1 | 8.27 |
| CCOC(=O)N1CC2(CCC(N3CCN(c4ncccc4N4CCC(c5ccnn5C)CC4)CC3)C2)C1 (stereo not shown) [Example 28, ethyl 6-(4-{3-[4-(1-methyl-1H-pyrazol-5-yl)pipendin-1-yl]pyridin-2-yl}piperazin-1-yl)-2-azaspiro[3.4]octane-2-carboxylate] | 60 | 8.75 |
| CCOC(=O)N1CC2(CCC(N3CCN(c4ncccc4N4CCC(F)(F)C4)CC3)C2)C1 (stereo not shown) [Example 29, ethyl 6-{4-[3-(3,3-difluoropyrrolidin-1-yl)pyridin-2-yl]piperazin-1-yl}-2-azaspiro[3.4]octane-2-carboxylate] | 84 | 8.35 |
| CCOC(=O)N1CC2(CCC(N3CCN(c4ncccc4N4CC(C#N)C4)CC3)C2)C1 (stereo not shown) [Example 30, ethyl 6-{4-[3-(3-cyanoazetidin-1-yl)pyridin-2-yl]piperazin-1-yl}-2-azaspiro[3.4]octane-2-carboxylate] | 70.3 | 8.64 |
| CCOC(=O)N1CC2(CC(N3CCN(c4ncccc4-c4sncc4C)CC3)C2)C1 [Example 31, ethyl 6-{4-[3-(4-methyl-1,2-thiazol-5-yl)pyridin-2-yl]piperazin-1-yl}-2-azaspiro[3.3]heptane-2-carboxylate] | 101 | 7.87 |
| CCOC(=O)N1CC2(CC(N3CCN(c4ncccc4-c4cc(C)ns4)CC3)C2)C1 [Example 32, ethyl 6-{4-[3-(3-methyl-1,2-thiazol-5-yl)pyridin-2-yl]piperazin-1-yl}-2-azaspiro[3.3]heptane-2-carboxylate] | 84.3 | 7.56 |
